This is an account of results in patent US11505536B2, “Dihydroorotate dehydrogenase inhibitors” (Janssen Biotech, Inc., priority 2019, dated 2022).

One assay addresses human DHODH (Homo sapiens (Human), UniProt Q02127). Put plainly: DHODH Enzymatic Assay. The class given is biochemical. As to conditions: purified human DHODH, DCIP absorbance, end-point mode; read-out: hDHODH IC50. The method in brief: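 Purified human DHODH in […] HEPES pH 7.5, 150 mM NaCl, 0.5 mM EDTA, 0.1% Triton X-100; reaction started with substrate mix of 20 mM DHO, 5 mM CoQ6, 1 mM DCIP. End-point read as DCIP reduction (absorbance ~600 nm) after brequinar quench.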

In assay [1] the test system is MOLM-13 cells (human acute myeloid leukemia cells). The assay can be described thus: MOLM-13 Cellular Assay. Format: cell-based. As to conditions: 72 hours exposure, cell viability by CellTiter-Glo. The method in brief: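 MOLM-13 AML cells, seeded at 5,000/well in RPMI 1640 with 10% FBS, were treated with compounds right after seeding for 72 h at 37 °C, 5% CO2. Viability read by CellTiter-Glo luminescence.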

A value given as a limit tells only on which side of the number the result lay.

Chain of human DHODH (Q02127 whole entry): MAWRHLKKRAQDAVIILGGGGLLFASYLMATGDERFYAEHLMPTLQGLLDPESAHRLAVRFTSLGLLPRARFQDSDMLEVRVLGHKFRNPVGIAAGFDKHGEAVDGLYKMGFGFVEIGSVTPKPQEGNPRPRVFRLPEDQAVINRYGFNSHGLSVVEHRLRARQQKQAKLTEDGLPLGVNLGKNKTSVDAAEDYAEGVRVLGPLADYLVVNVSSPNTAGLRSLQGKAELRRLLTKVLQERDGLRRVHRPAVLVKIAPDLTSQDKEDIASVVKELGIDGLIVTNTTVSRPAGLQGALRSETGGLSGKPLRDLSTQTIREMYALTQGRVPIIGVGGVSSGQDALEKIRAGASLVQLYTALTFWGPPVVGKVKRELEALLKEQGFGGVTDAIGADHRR

On to `CCc1nn(-c2ccccc2C)c(=O)c2ccc(-n3nc(CO)n(CC)c3=O)cc12` [Example 21, 4-Ethyl-6-(4-ethyl-3-(hydroxymethyl)-5-oxo-4,5-dihydro-1H-1,2,4-triazol-1-yl)-2-(o-tolyl)phthalazin-1(2H)-one], for which the IC50 on human DHODH was 31.2 nM; in assay [1] (Homo sapiens, MOLM-13, 72 h), 10 nM.

`CCn1c(CO)nn(-c2nc3c(C(C)C)cn(-c4c(F)cccc4Cl)c(=O)c3cc2F)c1=O` [Example 36, 6-(2-Chloro-6-fluorophenyl)-2-(4-ethyl-3-(hydroxymethyl)-5-oxo-4,5-dihydro-1H-1,2,4-triazol-1-yl)-3-fluoro-8-isopropyl-1,6-naphthyridin-5(6H)-one]: the IC50 on human DHODH is 0.356 nM; in assay [1] (Homo sapiens, MOLM-13, 72 h), 0.4 nM.

Regarding `C=C(C)c1cn(-c2c(C)cnc(OC)c2Cl)c(=O)c2cc(F)c(-n3nc(CO)n(CC)c3=O)cc12` [Example 62, 2-(3-Chloro-2-methoxy-5-methylpyridin-4-yl)-6-(4-ethyl-3-(hydroxymethyl)-5-oxo-4,5-dihydro-1H-1,2,4-triazol-1-yl)-7-fluoro-4-(prop-1-en-2-yl)isoquinolin-1(2H)-one], the IC50 amounted to 0.836 nM on human DHODH and 2 nM in assay [1] (Homo sapiens, MOLM-13, 72 h).

On to `CCn1c(CO)nn(-c2nc3c(C(C)C)cn(-c4ccccc4C)c(=O)c3cc2F)c1=O` [Example 40, 2-(4-Ethyl-3-(hydroxymethyl)-5-oxo-4,5-dihydro-1H-1,2,4-triazol-1-yl)-3-fluoro-8-isopropyl-6-(o-tolyl)-1,6-naphthyridin-5(6H)-one], for which the IC50 on human DHODH was 0.802 nM; in assay [1] (Homo sapiens, MOLM-13, 72 h), 0.8 nM.

In the case of `CCn1c(CO)nn(-c2nc3c(C(C)C)cn(-c4ccccc4C(F)F)c(=O)c3cc2F)c1=O` [Example 140], the IC50 on human DHODH was 1.13 nM; in assay [1] (Homo sapiens, MOLM-13, 72 h), 1 nM.

For `CCn1c(CO)nn(-c2cc3c(C(C)C)cn(-c4ccccc4OC)c(=O)c3cc2F)c1=O` [Example 95, 6-(4-Ethyl-3-(hydroxymethyl)-5-oxo-4,5-dihydro-1H-1,2,4-triazol-1-yl)-7-fluoro-4-isopropyl-2-(2-methoxyphenyl)isoquinolin-1(2H)-one], the IC50 on human DHODH came out at 0.772 nM; in assay [1] (Homo sapiens, MOLM-13, 72 h) it was 1 nM.

For `CCn1c(CO)nn(-c2cc3c(C(C)C)cn(-c4c(F)cccc4Cl)c(=O)c3cc2F)c1=O` [Example 11, 2-(2-Chloro-6-fluorophenyl)-6-(4-ethyl-3-(hydroxymethyl)-5-oxo-4,5-dihydro-1H-1,2,4-triazol-1-yl)-7-fluoro-4-isopropylisoquinolin-1(2H)-one], the IC50 at human DHODH was 0.222 nM; in assay [1], 0.2 nM; in assay [1] (Homo sapiens, MOLM-13, 72 h), at most 0.2 nM.

In the case of `CCn1c(CO)nn(-c2cc3c(C(C)C)cn(-c4ccccc4C(F)(F)F)c(=O)c3cc2F)c1=O` [Example 103, 6-(4-Ethyl-3-(hydroxymethyl)-5-oxo-4,5-dihydro-1H-1,2,4-triazol-1-yl)-7-fluoro-4-isopropyl-2-(2-(trifluoromethyl)phenyl)isoquinolin-1(2H)-one], the IC50 on human DHODH was determined as 0.669 nM; in assay [1] (Homo sapiens, MOLM-13, 72 h), 0.3 nM.

For `C=C(c1cn(-c2ccccc2C)c(=O)c2cc(F)c(-n3nc(CO)n(CC)c3=O)cc12)C(F)(F)F` [Example 81, 6-(4-Ethyl-3-(hydroxymethyl)-5-oxo-4,5-dihydro-1H-1,2,4-triazol-1-yl)-7-fluoro-2-(o-tolyl)-4-(3,3,3-trifluoroprop-1-en-2-yl)isoquinolin-1(2H)-one], the IC50 at human DHODH stood at 0.226 nM; in assay [1] (Homo sapiens, MOLM-13, 72 h), 0.3 nM.

Consider `[2H]C([2H])([2H])c1ccccc1-n1cc(C(C)C)c2nc(-n3nc(CO)n(CC)c3=O)c(F)cc2c1=O` [Example 142, 2-(4-Ethyl-3-(hydroxymethyl)-5-oxo-4,5-dihydro-1H-1,2,4-triazol-1-yl)-3-fluoro-8-isopropyl-6-(o-D3-tolyl)-1,6-naphthyridin-5(6H)-one], for which the IC50 was 0.623 nM at human DHODH and 0.4 nM in assay [1] (Homo sapiens, MOLM-13, 72 h).

Regarding `CCn1c(CO)nn(-c2ccc3c(=O)n(-c4c(F)cccc4Cl)cc(C4CC4)c3c2)c1=O` [Example 9, 2-(2-Chloro-6-fluorophenyl)-4-cyclopropyl-6-(4-ethyl-3-(hydroxymethyl)-5-oxo-4,5-dihydro-1H-1,2,4-triazol-1-yl)isoquinolin-1(2H)-one], the IC50 on human DHODH was found to be 11.5 nM; in assay [1] (Homo sapiens, MOLM-13, 72 h), 5 nM.

On to `C=C(C)c1cn(-c2cc(C)ccc2Cl)c(=O)c2cc(F)c(-n3nc(CO)n(CC)c3=O)cc12` [Example 43, 2-(2-Chloro-5-methylphenyl)-6-(4-ethyl-3-(hydroxymethyl)-5-oxo-4,5-dihydro-1H-1,2,4-triazol-1-yl)-7-fluoro-4-(prop-1-en-2-yl)isoquinolin-1(2H)-one], for which the concentration for half-maximal inhibition (IC50) on human DHODH was found to be 0.917 nM; in assay [1] (Homo sapiens, MOLM-13, 72 h), 0.4 nM.

Take `CCn1c(CO)nn(-c2ccc3c(=O)n(-c4c(F)cccc4Cl)ccc3c2)c1=O` [Example 10, 2-(2-Chloro-6-fluorophenyl)-6-(4-ethyl-3-(hydroxymethyl)-5-oxo-4,5-dihydro-1H-1,2,4-triazol-1-yl)isoquinolin-1(2H)-one]: the IC50 at human DHODH turned out to be 344 nM; in assay [1] (Homo sapiens, MOLM-13, 72 h), 100 nM.

On to `C=C(C)c1cn(-c2cc(OC)ccc2Cl)c(=O)c2cc(F)c(-n3nc(CO)n(CC)c3=O)cc12` [Example 47, 2-(2-Chloro-5-methoxyphenyl)-6-(4-ethyl-3-(hydroxymethyl)-5-oxo-4,5-dihydro-1H-1,2,4-triazol-1-yl)-7-fluoro-4-(prop-1-en-2-yl)isoquinolin-1(2H)-one], for which the IC50 on human DHODH was 1.21 nM; in assay [1] (Homo sapiens, MOLM-13, 72 h) it was 0.7 nM.

As for `C=C(C)c1cn(-c2cc(C)cnc2Cl)c(=O)c2cc(F)c(-n3nc(CO)n(CC)c3=O)cc12` [Example 84, 2-(2-Chloro-5-methylpyridin-3-yl)-6-(4-ethyl-3-(hydroxymethyl)-5-oxo-4,5-dihydro-1H-1,2,4-triazol-1-yl)-7-fluoro-4-(prop-1-en-2-yl)isoquinolin-1(2H)-one], the IC50 at human DHODH amounted to 6.58 nM; in assay [1] (Homo sapiens, MOLM-13, 72 h), 70 nM.

For the compound `C=C(C)c1cn(-c2ccccc2C#N)c(=O)c2ccc(-n3nc(CO)n(CC)c3=O)cc12` [Example 13, 2-(6-(4-Ethyl-3-(hydroxymethyl)-5-oxo-4,5-dihydro-1H-1,2,4-triazol-1-yl)-1-oxo-4-(prop-1-en-2-yl)isoquinolin-2(1H)-yl)benzonitrile], the IC50 came to 5.49 nM on human DHODH and 6 nM in assay [1] (Homo sapiens, MOLM-13, 72 h).

For the compound `CCn1c(CO)nn(-c2cc3c(C(C)C)cn(-c4scnc4C)c(=O)c3cc2F)c1=O` [Example 39, 6-(4-Ethyl-3-(hydroxymethyl)-5-oxo-4,5-dihydro-1H-1,2,4-triazol-1-yl)-7-fluoro-4-isopropyl-2-(4-methylthiazol-5-yl)isoquinolin-1(2H)-one], the IC50 at human DHODH was 13 nM; in assay [1] (Homo sapiens, MOLM-13, 72 h), 40 nM.

As for `CCn1c(CO)nn(-c2cc3c(C(C)C)cn(-c4c(F)ccc(OC)c4Cl)c(=O)c3cc2F)c1=O` [Example 80, 2-(2-Chloro-6-fluoro-3-methoxyphenyl)-6-(4-ethyl-3-(hydroxymethyl)-5-oxo-4,5-dihydro-1H-1,2,4-triazol-1-yl)-7-fluoro-4-isopropylisoquinolin-1(2H)-one], the IC50 on human DHODH amounted to 0.273 nM; in assay [1] (Homo sapiens, MOLM-13, 72 h), 0.3 nM.

On to `CCn1c(CO)nn(-c2cc3c(C(C)C)cn(-c4nnccc4C)c(=O)c3cc2F)c1=O` [Example 100, 6-(4-Ethyl-3-(hydroxymethyl)-5-oxo-4,5-dihydro-1H-1,2,4-triazol-1-yl)-7-fluoro 4-isopropyl-2-(4-methylpyridazin-3-yl)isoquinolin-1(2H)-one], for which the IC50 at human DHODH was 70.7 nM; in assay [1] (Homo sapiens, MOLM-13, 72 h), over 100 nM.

Consider `CCn1c(CO)nn(-c2ccc3c(=O)n(-c4ccc([N+](=O)[O-])cc4F)cc(I)c3c2)c1=O` [Example 16, 6-(4-Ethyl-3-(hydroxymethyl)-5-oxo-4,5-dihydro-1H-1,2,4-triazol-1-yl)-2-(2-fluoro-4-nitrophenyl)-4-iodoisoquinolin-1(2H)-one], for which the IC50 came out at 1180 nM at human DHODH and 300 nM in assay [1] (Homo sapiens, MOLM-13, 72 h).

For the compound `CCn1c(CO)nn(-c2cc3c(C(C)C)cn([C@@H]4CCCC[C@@H]4C)c(=O)c3cc2F)c1=O` [Example 111, 6-(4-Ethyl-3-(hydroxymethyl)-5-oxo-4,5-dihydro-1H-1,2,4-triazol-1-yl)-7-fluoro-4-isopropyl-2-((1R,2S)-2-methylcyclohexyl)isoquinolin-1(2H)-one], the IC50 was 3.54 nM at human DHODH and 0.7 nM in assay [1] (Homo sapiens, MOLM-13, 72 h).

For the compound `CCn1c(CO)nn(-c2cc3c(C(C)C(F)(F)F)cn(-c4ccccc4C)c(=O)c3cc2F)c1=O` (racemic) [Example 88, Racemic-6-(4-Ethyl-3-(hydroxymethyl)-5-oxo-4,5-dihydro-1H-1,2,4-triazol-1-yl)-7-fluoro-2-(o-tolyl)-4-(1,1,1-trifluoropropan-2-yl)isoquinolin-1(2H)-one], the IC50 is 0.52 nM on human DHODH and 0.9 nM in assay [1] (Homo sapiens, MOLM-13, 72 h).

As for `C=C(C)c1cn(-c2ccccc2F)c(=O)c2cc(F)c(-n3nc(CO)n(CC)c3=O)cc12` [Example 66, 6-(4-Ethyl-3-(hydroxymethyl)-5-oxo-4,5-dihydro-1H-1,2,4-triazol-1-yl)-7-fluoro-2-(2-fluorophenyl)-4-(prop-1-en-2-yl)isoquinolin-1(2H)-one], the IC50 at human DHODH is under 0.169 nM; in assay [1] (Homo sapiens, MOLM-13, 72 h), 0.3 nM.

As to `CCn1c(CO)nn(-c2cc3c(C(C)C)cn(-c4ncncc4C)c(=O)c3cc2F)c1=O` [Example 104, 6-(4-Ethyl-3-(hydroxymethyl)-5-oxo-4,5-dihydro-1H-1,2,4-triazol-1-yl)-7-fluoro-4-isopropyl-2-(5-methylpyrimidin-4-yl)isoquinolin-1(2H)-one], the IC50 on human DHODH is 43.5 nM; in assay [1] (Homo sapiens, MOLM-13, 72 h), over 100 nM.
